Here are results for 23 molecules from patent US20200016159A1, “N3-CYCLICALLY SUBSTITUTED THIENOURACILS AND USE THEREOF” (Bayer Aktiengesellschaft, priority 2016, published 2020).

In this assay the target is T1, human adenosine A2b receptor (Homo sapiens, UniProt P29275).
T1 sequence (P29275 1-332): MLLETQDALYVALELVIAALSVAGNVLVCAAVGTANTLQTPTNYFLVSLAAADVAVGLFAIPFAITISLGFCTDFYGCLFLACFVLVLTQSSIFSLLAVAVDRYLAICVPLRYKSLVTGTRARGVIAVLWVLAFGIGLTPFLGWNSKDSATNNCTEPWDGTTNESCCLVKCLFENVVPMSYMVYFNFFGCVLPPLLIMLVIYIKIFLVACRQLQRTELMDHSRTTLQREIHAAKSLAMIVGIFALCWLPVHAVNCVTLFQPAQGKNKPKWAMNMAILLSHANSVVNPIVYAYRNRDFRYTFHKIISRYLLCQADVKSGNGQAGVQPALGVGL
In words: Cellular in vitro reporter gene test for A2b receptor activity (antagonism of NECA). In kind it is cell-based. Particulars: recombinant CHO-K1 cells, CRE-luciferase reporter, co-incubation with EC50 concentration of NECA, 3 hours. Also on record: expressed in transfected cells; host or cells: CHO-K1 (Chinese hamster ovary) with CRE-luciferase reporter. Here is the method:
The identification of selective antagonists of the human adenosine A2b receptor and the quantification of the efficacy and selectivity of the compounds according to the invention was carried out with the aid of recombinant cell lines for the human adenosine receptors A1, A2a, A2b and A3. These cell lines were originally derived from an ovarepithelial cell of the hamster (Chinese Hamster Ovary, CHO-K1, American Type Culture Collection, Manassas, Va. 20108, USA). In addition to the respective recombinantly expressed adenosine receptor for testing the efficacy at the A1, A2a and A2b receptors, the cell lines contain a reporter gene construct where expression of the firefly (Photinus pyralis) luciferase is under the control of a promoter which can be activated via intracellular signal cascades by stimulation of the receptors with the (not subtype-selective) adenosine receptor agonist NECA (5′-N-ethylcarboxamidoadenosine) [S. J. Hill, J. G. Baker, S. Rhees, Curr. Opin. Pharmacol. 1, 526-532 (2001)].
In the case of the A2a and A2b cell lines, this is a minimal promoter having a plurality of cAMP-responsive elements (CRE). Stimulation of the Gs-coupled A2b or A2a receptors by NECA ultimately leads, via formation of cAMP, to CRE-dependent induction of luciferase expression, which is detected 3 hours after the start of the incubation with NECA using a detection solution in a suitable luminometer. For testing the antagonists, initially, in a pre-experiment, the concentration of NECA which, at the test day in question, results in half-maximum stimulation of luciferase expression (EC50 concentration) is determined. By joint incubation of this EC50 concentration of NECA with the substances to be tested, it is possible to determine their antagonistic activity.
Table 1 below lists the IC50 values from the A2b receptor assay for individual working examples (in some cases as means of a plurality of independent individual determinations and rounded to two significant figures; it may also be the case here that various independent preparations of the respective working example have been used): […]
Consider `Cc1c(CN2CCNC2=O)sc2c1c(=O)n(C1CC1C)c(=O)n2CC1CCOC1` (single isomer, unassigned) [Example 293, 5-Methyl-3-(2-methylcyclopropyl)-6-[(2-oxoimidazolidin-1-yl)methyl]-1-(tetrahydrofuran-3-ylmethyl)thieno[2,3-d]pyrimidine-2,4(1H,3H)-dione], for which the IC50 was 12 nM. Consider `Cc1c(CN2CCNC2=O)sc2c1c(=O)n([C@H]1C[C@@H]1C)c(=O)n2CC1CC1(F)F` (single isomer, unassigned) [Example 250], for which the IC50 amounted to 1.1 nM. As for `Cc1c(CN2CCNC2=O)sc2c1c(=O)n(C1CC1C)c(=O)n2C` (single isomer, unassigned) [Example 223, 1,5-Dimethyl-3-(2-methylcyclopropyl)-6-[(2-oxoimidazolidin-1-yl)methyl]thieno[2,3-d]pyrimidine-2,4(1H,3H)-dione], the IC50 is 19 nM. On to `Cc1c(CN2CCNC2=O)sc2c1c(=O)n(C1CC1C)c(=O)n2CC1CC(F)(F)C1` (single isomer, unassigned) [Example 254, 1-[(3,3-Difluorocyclobutyl)methyl]-5-methyl-3-(2-methylcyclopropyl)-6-[(2-oxoimidazolidin-1-yl)methyl]thieno[2,3-d]pyrimidine-2,4(1H,3H)-dione], for which the IC50 was found to be 7.2 nM. As for `Cc1c(Cn2[nH]ccc2=O)sc2c1c(=O)n(C1CC(C)(C)C1)c(=O)n2CCC(F)(F)F` [Example 314, 3-(3,3-Dimethylcyclobutyl)-5-methyl-6-[(5-oxo-2,5-dihydro-H-pyrazol-1-yl)methyl]-1-(3,3,3-trifluoropropyl)thieno[2,3-d]pyrimidine-2,4(1H,3H)-dione], the concentration for half-maximal inhibition (IC50) was 49 nM.

Turning to `COCCn1c(=O)n(C2CC2OC)c(=O)c2c(C)c(Cn3nc[nH]c3=O)sc21` (single isomer, unassigned) [Example 311, 3-(2-Methoxycyclopropyl)-1-(2-methoxyethyl)-5-methyl-6-[(5-oxo-4,5-dihydro-H-1,2,4-triazol-1-yl)methyl]thieno[2,3-d]pyrimidine-2,4(1H,3H)-dione], the IC50 turned out to be 44 nM.

With `Cc1c(CN2CCNC2=O)sc2c1c(=O)n(C1CC1C)c(=O)n2CC(F)F` (single isomer, unassigned) [Example 235, 1-(2,2-Difluoroethyl)-5-methyl-3-(2-methylcyclopropyl)-6-[(2-oxoimidazolidin-1-yl)methyl]thieno[2,3-d]pyrimidine-2,4(1H,3H)-dione], the IC50 amounted to 18 nM. For the molecule `CO[C@H]1C[C@@H](n2c(=O)c3c(C)c(CN4CCNC4=NC#N)sc3n(CCC(F)(F)F)c2=O)C1` [Example 155, [1-{[3-(cis-3-Methoxycyclobutyl)-5-methyl-2,4-dioxo-1-(3,3,3-trifluoropropyl)-1,2,3,4-tetrahydrothieno[2,3-d]pyrimidin-6-yl]methyl}imidazolidin-2-ylidene]cyanamide], the IC50 was found to be 56 nM. For the molecule `Cc1c(CN2CCNC2=O)sc2c1c(=O)n(C1CC1C)c(=O)n2CCF` (single isomer, unassigned) [Example 233, 1-(2-Fluoroethyl)-5-methyl-3-(2-methylcyclopropyl)-6-[(2-oxoimidazolidin-1-yl)methyl]thieno[2,3-d]pyrimidine-2,4(1H,3H)-dione], the 50% inhibitory concentration (IC50) is 11 nM. With `COCCn1c(=O)n([C@H]2C[C@H](OC)C2)c(=O)c2c(C)c(CN3CCNC3=NC#N)sc21` [Example 150, [1-{[3-(trans-3-Methoxycyclobutyl)-1-(2-methoxyethyl)-5-methyl-2,4-dioxo-1,2,3,4-tetrahydrothieno[2,3-d]pyrimidin-6-yl]methyl}imidazolidin-2-ylidene]cyanamide], the IC50 was determined as 120 nM. On to `Cc1c(Cn2[nH]ccc2=O)sc2c1c(=O)n(C1CCC1)c(=O)n2CCC(F)(F)F` [Example 312, 3-Cyclobutyl-5-methyl-6-[(5-oxo-2,5-dihydro-1H-pyrazol-1-yl)methyl]-1-(3,3,3-trifluoropropyl)thieno[2,3-d]pyrimidine-2,4(1H,3H)-dione], for which the IC50 was 15 nM.

Consider `COCCn1c(=O)n(C2CC2C(F)(F)F)c(=O)c2c(C)c(Cn3nc[nH]c3=O)sc21` (racemic) [Example 297, 1-(2-Methoxyethyl)-5-methyl-6-[(5-oxo-4,5-dihydro-1H-1,2,4-triazol-1-yl)methyl]-3-[2-(trifluoromethyl)cyclopropyl]thieno[2,3-d]pyrimidine-2,4(1H,3H)-dione], for which the IC50 is 120 nM. The result for `Cc1c(CN2CCNC2=O)sc2c1c(=O)n([C@H]1C[C@@H]1C)c(=O)n2CC1CCC(F)(F)C1` (single isomer, unassigned) [Example 256] reads 5.5 nM; that for `Cc1c(CN2CCNC2=O)sc2c1c(=O)n(C1CC1(C)C)c(=O)n2CCC(F)(F)F` (single isomer, unassigned) [Example 101, 3-(2,2-Dimethylcyclopropyl)-5-methyl-6-[(2-oxoimidazolidin-1-yl)methyl]-1-(3,3,3-trifluoropropyl)thieno[2,3-d]pyrimidine-2,4(1H,3H)-dione], 32 nM. The result for `Cc1c(Cn2nc[nH]c2=O)sc2c1c(=O)n([C@H]1C[C@@H]1C)c(=O)n2CCCC(F)(F)F` [Example 324, 5-Methyl-3-[(1S,2S)-2-methylcyclopropyl]-6-[(5-oxo-4,5-dihydro-1H-1,2,4-triazol-1-yl)methyl]-1-(4,4,4-trifluorobutyl)thieno[2,3-d]pyrimidine-2,4(1H, 3H)-dione] reads 5.5 nM; that for `Cc1c(CN2CCNC2=O)sc2c1c(=O)n(C1CC1C)c(=O)n2CCF` (racemic) [Example 231, 1-(2-Fluoroethyl)-5-methyl-3-(2-methylcyclopropyl)-6-[(2-oxoimidazolidin-1-yl)methyl]thieno[2,3-d]pyrimidine-2,4(1H,3H)-dione], 2.3 nM; that for `CCC1CC1n1c(=O)c2c(C)c(CN3CCNC3=O)sc2n(CCOC)c1=O` (racemic) [Example 300, 3-(2-Ethylcyclopropyl)-1-(2-methoxyethyl)-5-methyl-6-[(2-oxoimidazolidin-1-yl)methyl]thieno[2,3-d]pyrimidine-2,4(1H,3H)-dione], 13 nM.

As for `Cc1c(Cn2nc[nH]c2=O)sc2c1c(=O)n(C1CC(C)(C)C1)c(=O)n2CCC(F)(F)F` [Example 168, 3-(3,3-Dimethylcyclobutyl)-5-methyl-6-[(5-oxo-4,5-dihydro-1,2,4-triazol-1-yl)methy]-1-(3,3,3-trifluoropropyl)thieno[2,3-d]pyrimidine-2,4(1H,3H)-dione], the IC50 was determined as 16 nM. Regarding `Cc1c(Cn2nc[nH]c2=O)sc2c1c(=O)n([C@H]1C[C@@H]1C)c(=O)n2CCCF` [Example 322, 1-(3-Fluoropropyl)-5-methyl-3-[(1S,2S)-2-methylcyclopropyl]-6-[(5-oxo-4,5-dihydro-H-1,2,4-triazol-1-yl)methyl]thieno[2,3-d]pyrimidine-2,4(1H,3H)-dione], the IC50 is 14 nM.

As to `Cc1c(Cn2nc[nH]c2=O)sc2c1c(=O)n(C1CC1)c(=O)n2CC1CCC(F)(F)C1` (single isomer, unassigned) [Example 210, 3-Cyclopropyl-1-[(3,3-difluorocyclopentyl)methyl]-5-methyl-6-[(5-oxo-4,5-dihydro-1H-1,2,4-triazol-1-yl)methyl]thieno[2,3-d]pyrimidine-2,4(1H,3H)-dione], the IC50 turned out to be 200 nM. The result for `Cc1c(CN2CCNC2=O)sc2c1c(=O)n(C1CC1C)c(=O)n2CCCF` (single isomer, unassigned) [Example 91, 1-(3-Fluoropropyl)-5-methyl-3-(2-methylcyclopropyl)-6-[(2-oxoimidazolidin-1-yl)methyl]thieno[2,3-d]pyrimidine-2,4(1H,3H)-dione] reads 20 nM; that for `CCn1c(=O)n(C2CC2C)c(=O)c2c(C)c(CN3CCNC3=O)sc21` (single isomer, unassigned) [Example 226, 1-Ethyl-5-methyl-3-(2-methylcyclopropyl)-6-[(2-oxoimidazolidin-1-yl)methyl]thieno[2,3-d]pyrimidine-2,4(1H,3H)-dione], 1.9 nM. Turning to `Cc1c(Cn2nc[nH]c2=O)sc2c1c(=O)n([C@H]1C[C@@H]1C)c(=O)n2CC1CC1(F)F` (stereo partly drawn) [Example 326, 1-[(2,2-Difluorocyclopropyl)methyl]-5-methyl-3-[(1S,2S)-2-methylcyclopropyl]-6-[(5-oxo-4,5-dihydro-1H-1,2,4-triazol-1-yl)methyl]thieno[2,3-d]pyrimidine-2,4(1H,3H)-dione], the IC50 turned out to be 17 nM.
